Assay results reported in the supplement of paper PMC10307832.

How the values were obtained:
Test in all cases: relative viability (nuclei count vs DMSO), 5 days (fraction); higher = more cells survive
[1] = tested on: NCI-H1915
How it was run: (§1)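 Relative viability divides the nuclei count in treated wells by that in vehicle wells. Lung cancer cell lines were seeded in 1536-well plates, dosed by pin tool the next day, and fixed and stained after 5 days in one step with final 0.05% Triton X-100, 1% formaldehyde and 1 ug/ml Hoechst. Dosing was a single drug or a fixed anchor-drug dose plus five library-drug doses (not always all listed) in √10 steps, and values are medians of duplicate plates imaged at 4×.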

[2] = tested on: LC-2-ad
How it was run: as §1

[3] = tested on: HCC-15
How it was run: as §1

[4] = tested on: NCI-H1993
How it was run: as §1

[5] = tested on: NCI-H2023
How it was run: as §1

[6] = tested on: NCI-H2085
How it was run: as §1

[7] = tested on: COR-L23
How it was run: as §1

[8] = tested on: NCI-H650
How it was run: as §1

[9] = tested on: NCI-H1651
How it was run: as §1

[10] = tested on: UMC-11
How it was run: as §1

[11] = tested on: NCI-H2126
How it was run: as §1

[12] = tested on: ABC-1
How it was run: as §1

[13] = tested on: NCI-H838
How it was run: as §1

[14] = tested on: NCI-H358
How it was run: as §1

[15] = tested on: PC-14
How it was run: as §1

[16] = tested on: NCI-H2342
How it was run: as §1

[17] = tested on: LU99A
How it was run: as §1

[18] = tested on: NCI-H2347
How it was run: as §1

[19] = tested on: EPLC-272H
How it was run: as §1

[20] = tested on: NCI-H1355
How it was run: as §1

[21] = tested on: SW 1573
How it was run: as §1

[22] = tested on: HARA
How it was run: as §1

SMILES: NC(=O)Nc1cc(-c2cccc(F)c2)sc1C(=O)N[C@H]1CCCNC1 [AZD7762] + CCNC(=O)c1noc(-c2cc(C(C)C)c(O)cc2O)c1-c1ccc(CN2CCOCC2)cc1 [Luminespib] (partner 0.01 µM)
- relative viability ([1]; first compound 0.01 µM): 0.828
- relative viability ([1]; first compound 0.03162 µM): 0.829
- relative viability ([1]; first compound 0.1 µM): 0.743
- relative viability ([1]; first compound 0.3162 µM): 0.555
- relative viability ([1]; first compound 1 µM): 0.434
- relative viability ([2]; first compound 0.01 µM): 1.27
- relative viability ([2]; first compound 0.03162 µM): 1.09
- relative viability ([2]; first compound 0.1 µM): 1.05
- relative viability ([2]; first compound 0.3162 µM): 0.991
- relative viability ([2]; first compound 1 µM): 0.646
- relative viability ([3]; first compound 0.01 µM): 0.309
- relative viability ([3]; first compound 0.03162 µM): 0.304
- relative viability ([3]; first compound 0.1 µM): 0.234
- relative viability ([3]; first compound 0.3162 µM): 0.163
- relative viability ([3]; first compound 1 µM): 0.315
- relative viability ([4]; first compound 0.01 µM): 1.04
- relative viability ([4]; first compound 0.03162 µM): 0.948
- relative viability ([4]; first compound 0.1 µM): 0.81
- relative viability ([4]; first compound 0.3162 µM): 0.971
- relative viability ([4]; first compound 1 µM): 0.678
- relative viability ([5]; first compound 0.01 µM): 0.824
- relative viability ([5]; first compound 0.03162 µM): 0.498
- relative viability ([5]; first compound 0.1 µM): 0.228
- relative viability ([5]; first compound 0.3162 µM): 0.141
- relative viability ([5]; first compound 1 µM): 0.114
- relative viability ([6]; first compound 0.01 µM): 0.47
- relative viability ([6]; first compound 0.03162 µM): 0.468
- relative viability ([6]; first compound 0.1 µM): 0.475
- relative viability ([6]; first compound 0.3162 µM): 0.459
- relative viability ([6]; first compound 1 µM): 0.374
- relative viability ([7]; first compound 0.01 µM): 0.687
- relative viability ([7]; first compound 0.03162 µM): 0.653
- relative viability ([7]; first compound 0.1 µM): 0.568
- relative viability ([7]; first compound 0.3162 µM): 0.216
- relative viability ([7]; first compound 1 µM): 0.117
- relative viability ([8]; first compound 0.01 µM): 0.801
- relative viability ([8]; first compound 0.03162 µM): 0.728
- relative viability ([8]; first compound 0.1 µM): 0.763
- relative viability ([8]; first compound 0.3162 µM): 0.641
- relative viability ([8]; first compound 1 µM): 0.458
- relative viability ([9]; first compound 0.01 µM): 0.98
- relative viability ([9]; first compound 0.03162 µM): 0.872
- relative viability ([9]; first compound 0.1 µM): 0.802
- relative viability ([9]; first compound 0.3162 µM): 0.487
- relative viability ([9]; first compound 1 µM): 0.215
- relative viability ([10]; first compound 0.01 µM): 1.14
- relative viability ([10]; first compound 0.03162 µM): 0.999
- relative viability ([10]; first compound 0.1 µM): 1.09
- relative viability ([10]; first compound 0.3162 µM): 0.593
- relative viability ([10]; first compound 1 µM): 0.384
- relative viability ([11]; first compound 0.01 µM): 0.922
- relative viability ([11]; first compound 0.03162 µM): 0.914
- relative viability ([11]; first compound 0.1 µM): 0.833
- relative viability ([11]; first compound 0.3162 µM): 0.802
- relative viability ([11]; first compound 1 µM): 0.456
- relative viability ([12]; first compound 0.01 µM): 0.545
- relative viability ([12]; first compound 0.03162 µM): 0.787
- relative viability ([12]; first compound 0.1 µM): 0.361
- relative viability ([12]; first compound 0.3162 µM): 0.374
- relative viability ([12]; first compound 1 µM): 0.305
- relative viability ([13]; first compound 0.01 µM): 0.277
- relative viability ([13]; first compound 0.03162 µM): 0.336
- relative viability ([13]; first compound 0.1 µM): 0.199
- relative viability ([13]; first compound 0.3162 µM): 0.157
- relative viability ([13]; first compound 1 µM): 0.174
- relative viability ([14]; first compound 0.01 µM): 0.275
- relative viability ([14]; first compound 0.03162 µM): 0.292
- relative viability ([14]; first compound 0.1 µM): 0.307
- relative viability ([14]; first compound 0.3162 µM): 0.545
- relative viability ([14]; first compound 1 µM): 0.142
- relative viability ([15]; first compound 0.01 µM): 0.162
- relative viability ([15]; first compound 0.03162 µM): 0.199
- relative viability ([15]; first compound 0.1 µM): 0.16
- relative viability ([15]; first compound 0.3162 µM): 0.118
- relative viability ([15]; first compound 1 µM): 0.136
- relative viability ([16]; first compound 0.01 µM): 0.69
- relative viability ([16]; first compound 0.03162 µM): 0.696
- relative viability ([16]; first compound 0.1 µM): 0.731
- relative viability ([16]; first compound 0.3162 µM): 0.819
- relative viability ([16]; first compound 1 µM): 0.676
- relative viability ([17]; first compound 0.01 µM): 0.255
- relative viability ([17]; first compound 0.03162 µM): 0.265
- relative viability ([17]; first compound 0.1 µM): 0.357
- relative viability ([17]; first compound 0.3162 µM): 0.201
- relative viability ([17]; first compound 1 µM): 0.207
- relative viability ([18]; first compound 0.01 µM): 0.417
- relative viability ([18]; first compound 0.03162 µM): 0.573
- relative viability ([18]; first compound 0.1 µM): 0.715
- relative viability ([18]; first compound 0.3162 µM): 0.396
- relative viability ([18]; first compound 1 µM): 0.63
- relative viability ([19]; first compound 0.01 µM): 0.55
- relative viability ([19]; first compound 0.03162 µM): 0.303
- relative viability ([19]; first compound 0.1 µM): 0.319
- relative viability ([19]; first compound 0.3162 µM): 0.459
- relative viability ([19]; first compound 1 µM): 0.143
- relative viability ([20]; first compound 0.01 µM): 0.709
- relative viability ([20]; first compound 0.03162 µM): 0.751
- relative viability ([20]; first compound 0.1 µM): 0.812
- relative viability ([20]; first compound 0.3162 µM): 0.717
- relative viability ([20]; first compound 1 µM): 0.581
- relative viability ([21]; first compound 0.01 µM): 0.885
- relative viability ([21]; first compound 0.03162 µM): 0.272
- relative viability ([21]; first compound 0.1 µM): 0.166
- relative viability ([21]; first compound 0.3162 µM): 0.169
- relative viability ([21]; first compound 1 µM): 0.161
- relative viability ([22]; first compound 0.01 µM): 1.02
- relative viability ([22]; first compound 0.03162 µM): 0.71
- relative viability ([22]; first compound 0.1 µM): 0.604
- relative viability ([22]; first compound 0.3162 µM): 0.471
- relative viability ([22]; first compound 1 µM): 0.12
